Measurements from ChEMBL document CHEMBL5335775, “Bioisosteric replacement of 1H-1,2,3-triazole with 1H-tetrazole ring enhances anti-leukemic activity of (5-benzylthiazol-2-yl)benzamides” (Eur J Med Chem, 2023).

Experiments:
[1] = system: DU-145; experiment: Antiproliferative activity against human DU-145 cells assessed as inhibition of cell proliferation incubated for 3 days by Alamar blue dye based assay; assay type: functional; conditions: DU-145, 72 h
[2] = system: Hep 3B2; experiment: Antiproliferative activity against human Hep3B cells assessed as inhibition of cell proliferation; assay type: functional, cell-based
[3] = Antiproliferative activity against J774.2 cells assessed as inhibition of cell proliferation measured after 72 hrs by MTT assay; assay type: toxicity, cell-based; conditions: mouse
[4] = Antiproliferative activity against human HaCaT cells assessed as inhibition of cell proliferation measured after 72 hrs by MTT assay; assay type: toxicity, cell-based
[5] = Antiproliferative activity against NIH3T3 cells assessed as inhibition of cell proliferation measured after 72 hrs by MTT assay; assay type: toxicity, cell-based; conditions: mouse
[6] = system: K562; experiment: Antiproliferative activity against human K562 cells assessed as inhibition of cell proliferation measured after 72 hrs by MTT assay; assay type: functional, cell-based; conditions: K562, 72 h
[7] = system: K562; experiment: Anticancer activity against human K562 cells assessed as cell growth at 10^-5 M incubated for 48 hrs by SRB assay relative to control; assay type: functional; conditions: K562, 48 h, dose 1 10^-5M, read-out: Activity
[8] = Selectivity index, ratio of IC50 for human HaCaT cells to IC50 for human K562 cells; assay type: toxicity; conditions: HaCaT cells and K562 cells, read-out: Ratio IC50
[9] = system: ACHN; experiment: Anticancer activity against human ACHN cells assessed as cell growth at 10^-5 M incubated for 48 hrs by SRB assay relative to control; assay type: functional; conditions: dose 1 10^-5M, read-out: Activity
[10] = system: UACC-62; experiment: Anticancer activity against human UACC-62 cells assessed as cell growth at 10^-5 M incubated for 48 hrs by SRB assay relative to control; assay type: functional; conditions: UACC-62, 48 h, dose 1 10^-5M, read-out: Activity
[11] = system: LOX IMVI; experiment: Anticancer activity against human LOX IMVI cells assessed as cell growth at 10^-5 M incubated for 48 hrs by SRB assay relative to control; assay type: functional; conditions: dose 1 10^-5M, read-out: Activity
[12] = system: CAKI-1; experiment: Anticancer activity against human CAKI-1 cells assessed as cell growth at 10^-5 M incubated for 48 hrs by SRB assay relative to control; assay type: functional; conditions: CAKI-1, 48 h, dose 1 10^-5M, read-out: Activity
[13] = system: T47D; experiment: Antiproliferative activity against human T47D cells assessed as inhibition of cell proliferation measured after 48 hrs by SRB assay; assay type: functional, cell-based
[14] = target: NAD-dependent protein deacetylase sirtuin-2 (Homo sapiens, UniProt Q8IXJ6); experiment: Inhibition of N-terminal His6-tagged human Sirt2 (25 to 389 residues) using ZMAL as substrate incubated for 4 hrs by fluorescence based assay
Chain of NAD-dependent protein deacetylase sirtuin-2 (Q8IXJ6 whole entry, the tested form may be a part): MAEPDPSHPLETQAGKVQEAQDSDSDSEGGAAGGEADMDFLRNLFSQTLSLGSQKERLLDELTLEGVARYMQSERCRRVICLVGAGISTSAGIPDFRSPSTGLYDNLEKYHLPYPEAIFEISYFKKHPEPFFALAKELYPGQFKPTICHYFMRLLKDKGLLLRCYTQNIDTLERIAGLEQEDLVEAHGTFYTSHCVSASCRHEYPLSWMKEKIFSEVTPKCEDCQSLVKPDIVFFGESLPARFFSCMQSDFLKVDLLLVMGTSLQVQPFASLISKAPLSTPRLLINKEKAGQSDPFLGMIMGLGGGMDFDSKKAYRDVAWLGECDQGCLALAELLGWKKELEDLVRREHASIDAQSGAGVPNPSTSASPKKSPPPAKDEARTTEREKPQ

SMILES | IC50 [6] [µM] | IC50 at 72 h [3] [µM] | IC50 at 72 h [4] [µM] | IC50 at 72 h [5] [µM] | other results
COc1ccc(Cc2cnc(NC(=O)/C=C/c3ccco3)s2)cc1 | – | – | – | – | IC50 [1]: 0.015 µM
O=C(CCc1ccco1)Nc1ncc(Cc2ccccc2)s1 | – | – | – | – | IC50 [2]: 0.089 µM
O=C(Nc1ncc(Cc2cccc(Cl)c2Cl)s1)c1cc2ccccc2o1 | – | – | – | – | IC50 [13]: 0.0255 µM
COCCn1cc(COc2cccc(Cc3cnc(NC(=O)CSc4nc(C)cc(C)n4)s3)c2)nn1 | – | – | – | – | IC50 [14]: 0.118 µM
O=C(Nc1ncc(Cc2ccccc2)s1)c1ccc(-n2cnnn2)cc1O | > 100 | 22.2 | > 100 | > 100 | –

More lines, main results first:

IC50 [6] [µM] | SMILES | IC50 at 72 h [3] [µM] | IC50 at 72 h [4] [µM] | IC50 at 72 h [5] [µM] | other results
> 100 | Cc1nnnn1-c1ccc(C(=O)Nc2ncc(Cc3ccccc3)s2)cc1 | 3.61 | 6 | > 100 | –
> 100 | COc1ccc(Cc2cnc(NC(=O)c3ccc(-n4cnnn4)cc3)s2)cc1 | 8.22 | > 100 | > 100 | growth at 10 µM [7]: 36.7%
8 | Cc1ccc(Cc2cnc(NC(=O)c3ccc(-n4cnnn4)cc3)s2)cc1 | 59.8 | 52.6 | > 100 | selectivity ratio [8]: 6.6; growth at 10 µM [9]: 39.5%; growth at 10 µM [10]: 20.3%; growth at 10 µM [7]: 22.9%; growth at 10 µM [11]: 39.4%; growth at 10 µM [12]: 39.1%
> 100 | Cc1cccc(Cc2cnc(NC(=O)c3cccc(-n4cnnn4)c3)s2)c1 | 52.8 | > 100 | > 100 | –
